Measured values as given in US12350272B2, “Pyridopyrimidinone derivatives for use as AXL inhibitors” (OSCOTEC INC., priority 2018, dated 2025).
Structures can show the parent of a compound that is named as a salt. Where two headings read alike, the source gives them in different places.

Key:
Truncated human Axl = Truncated human Axl (Homo sapiens, UniProt P30530); test: Kinase inhibition assay (inhibition of enzymatic Axl kinase activity); format: biochemical
Method: Compounds of Formula (I) as obtained above were assayed to measure their capacity to inhibit Axl kinase. Axl belongs to the recently identified TYRO-3, Axl, MERTK (TAM) receptor tyrosine kinase (RTK) family. […] Upon GAS6 binding, Axl homodimerizes and subsequently induces several downstream signaling pathways involved in cell proliferation, migration, invasion, anti-apoptosis, angiogenesis, metastasis, and therapeutic resistance. Upregulation of Axl has been reported in a wide variety of cancer cell lines as well as in cancer specimens from patients with breast cancer, acute leukemia, colorectal cancer, lung cancer, melanoma, ovarian cancer, or prostate cancer, among others.
Compounds of Formula (I) as obtained above were initially diluted to […] in 100% DMSO (CALBIOCHEM™) for storage and made into kinase buffer solution to create a compound concentration ranging from 1 uM and 10 uM. Serial dilutions of the compounds were dispensed into a 96-well plate (GREINER BIOSCIENCES™) at 6 μL each. Truncated human Axl (CARNA BIOSCIENCES™) were diluted in kinase buffer and added to the compound solutions and pre-incubated for 30 minutes at room temperature. […] The reaction mixture was incubated for 1 hour. Following the incubation, the stop solution made with EDTA, water, and Lance detection buffer ([…]™) were added (12 μL each) to stop phosphorylation.

JAK2 = JAK2 (Homo sapiens (Human), UniProt O60674); test: Biochemical inhibition of JAK2; conditions: Table 2, range of IC50 value
MDA-MB-231 cells = test: Cell viability assay (ATPLite), MDA-MB-231; format: cell-based, human; conditions: for GI50: Homo sapiens, MDA-MB-231, 72 h, 72 hour incubation
Excerpt: (§1) Axl is a member of the TAM (TYRO3-Axl-MER) family of receptor tyrosine kinases, which, when activated, can increase tumor cell survival, proliferation, migration and invasion, angiogenesis, and tumor-host interactions. Upon GAS6 binding to Axl, Axl subsequently activates the signaling pathways downstream such as phosphoinositide 3-kinase (PI3K), RAt sarcoma (RAS), and extracellular signal regulated kinase (ERK).
(§2) This cell line was maintained with an Roswell Park Memorial Institute (RPMI) medium (HYCLONE™) containing 10% bovine calf serum (BCS; HYCLONE™) supplemented iron. The cells were seeded at 2×10^4 cells in 96-well culture plates, and serially diluted compounds were then added. After a 72 hour incubation period at 37° C., cell viability was measured using the ATPLite 1 step assay (PERKIN-ELMER™) that is based on the quantification of ATP from viable cells.

Hs578T cells = test: Cell viability assay (ATPLite), Hs578T; format: cell-based, human; conditions: Homo sapiens, Hs-578T, 72 h, 72 hour incubation
Excerpt: as §1, §2

[1] = Table 2, range of IC50 value, read-out: Axl

Truncated human Axl, sequence (P30530 26-894 limits assumed): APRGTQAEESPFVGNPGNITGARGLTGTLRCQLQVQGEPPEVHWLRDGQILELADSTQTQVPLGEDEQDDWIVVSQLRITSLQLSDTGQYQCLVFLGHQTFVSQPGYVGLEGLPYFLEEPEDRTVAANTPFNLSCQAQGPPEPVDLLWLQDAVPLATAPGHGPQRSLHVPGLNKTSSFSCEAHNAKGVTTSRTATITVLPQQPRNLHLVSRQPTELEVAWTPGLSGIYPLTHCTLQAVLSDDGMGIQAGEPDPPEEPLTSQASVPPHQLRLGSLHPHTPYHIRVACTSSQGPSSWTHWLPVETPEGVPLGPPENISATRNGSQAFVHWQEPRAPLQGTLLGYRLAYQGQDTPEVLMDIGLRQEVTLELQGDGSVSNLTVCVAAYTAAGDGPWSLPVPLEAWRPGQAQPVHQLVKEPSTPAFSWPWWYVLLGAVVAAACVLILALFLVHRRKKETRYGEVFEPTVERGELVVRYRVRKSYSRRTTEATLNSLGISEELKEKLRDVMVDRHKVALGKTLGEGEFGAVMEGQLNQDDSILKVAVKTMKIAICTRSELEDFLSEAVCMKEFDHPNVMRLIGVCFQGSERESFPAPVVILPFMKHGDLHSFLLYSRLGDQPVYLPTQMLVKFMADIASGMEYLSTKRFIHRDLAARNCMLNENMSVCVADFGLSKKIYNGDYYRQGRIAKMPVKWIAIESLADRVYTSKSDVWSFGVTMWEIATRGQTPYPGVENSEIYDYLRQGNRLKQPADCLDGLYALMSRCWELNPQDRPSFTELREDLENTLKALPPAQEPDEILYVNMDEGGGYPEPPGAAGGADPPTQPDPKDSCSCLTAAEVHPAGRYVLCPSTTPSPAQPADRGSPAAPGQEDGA
JAK2, sequence (O60674 whole entry, species assumed): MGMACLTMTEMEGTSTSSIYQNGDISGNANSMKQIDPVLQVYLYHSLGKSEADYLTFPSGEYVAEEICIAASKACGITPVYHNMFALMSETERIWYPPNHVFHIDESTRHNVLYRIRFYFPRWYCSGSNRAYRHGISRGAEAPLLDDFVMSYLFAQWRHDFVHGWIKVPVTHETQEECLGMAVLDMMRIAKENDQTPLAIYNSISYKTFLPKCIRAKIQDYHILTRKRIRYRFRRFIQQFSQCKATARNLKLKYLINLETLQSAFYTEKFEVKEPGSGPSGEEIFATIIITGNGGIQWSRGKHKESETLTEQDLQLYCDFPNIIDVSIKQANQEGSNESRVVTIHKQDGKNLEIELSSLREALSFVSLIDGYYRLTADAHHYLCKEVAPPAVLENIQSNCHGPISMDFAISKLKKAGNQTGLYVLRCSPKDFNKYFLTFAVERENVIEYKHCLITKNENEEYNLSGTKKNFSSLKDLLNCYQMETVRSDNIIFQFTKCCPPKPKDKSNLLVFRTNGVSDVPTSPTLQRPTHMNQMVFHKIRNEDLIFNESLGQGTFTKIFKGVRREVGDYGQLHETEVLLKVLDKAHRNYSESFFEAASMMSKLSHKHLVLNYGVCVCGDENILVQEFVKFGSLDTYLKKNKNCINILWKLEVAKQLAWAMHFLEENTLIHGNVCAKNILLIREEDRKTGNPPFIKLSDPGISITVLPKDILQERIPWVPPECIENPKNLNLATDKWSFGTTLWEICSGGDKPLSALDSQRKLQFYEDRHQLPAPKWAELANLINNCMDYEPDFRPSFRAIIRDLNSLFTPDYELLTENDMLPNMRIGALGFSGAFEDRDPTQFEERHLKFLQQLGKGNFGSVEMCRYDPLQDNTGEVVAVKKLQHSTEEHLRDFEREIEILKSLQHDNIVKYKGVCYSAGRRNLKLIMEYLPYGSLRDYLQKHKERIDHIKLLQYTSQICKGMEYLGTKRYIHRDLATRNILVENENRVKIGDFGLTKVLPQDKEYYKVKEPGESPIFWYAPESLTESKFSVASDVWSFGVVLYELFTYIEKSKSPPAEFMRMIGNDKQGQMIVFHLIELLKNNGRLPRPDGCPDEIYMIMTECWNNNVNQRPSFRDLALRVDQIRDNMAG

Row | SMILES | IC50 (Truncated human Axl; Table 1, read-out: Axl (IC50)) | other results
1 | CN1CCC(Nc2nc(Nc3ccc(OC4CCCC4)cc3)c3c(=O)[nH]cc(Br)c3n2)CC1 [Compound 223, 8-bromo-4-((4-(cyclopentyloxy)phenyl)amino)-2-((1-methylpiperidin-4-yl)amino)pyrido[4,3-d]pyrimidin-5(6H)-one] | 101 to 1000 nM | IC50 (JAK2): 101 to 1000 nM; IC50 (Truncated human Axl; [1]): 101 to 1000 nM
2 | CN1CCC(Nc2nc(Nc3ccc(OCc4ccccc4)cc3)c3c(=O)[nH]cc(Br)c3n2)CC1 [Compound 234, 4-((4-(benzyloxy)phenyl)amino)-8-bromo-2-((1-methylpiperidin-4-yl)amino)pyrido[4,3-d]pyrimidin-5(6H)-one hydrochloride] | 101 to 1000 nM | 
3 | CN1CCC(Nc2nc(Nc3ccc(OCC4CCCCC4)cc3)c3c(=O)[nH]cc(Br)c3n2)CC1 [Compound 224, 8-bromo-4-((4-(cyclohexylmethoxy)phenyl)amino)-2-((1-methylpiperidin-4-yl)amino)pyrido[4,3-d]pyrimidin-5(6H)-one] | 101 to 1000 nM | 
4 | CN1CCC(Nc2nc(Nc3ccc(OCC4CCCC4)cc3)c3c(=O)[nH]cc(Br)c3n2)CC1 [Compound 235, 8-bromo-4-((4-(cyclopentylmethoxy)phenyl)amino)-2-((1-methylpiperidin-4-yl)amino)pyrido[4,3-d]pyrimidin-5(6H)-one hydrochloride] | 101 to 1000 nM | GI50 (MDA-MB-231 cells): 1100 to 3000 nM; GI50 (Hs578T cells): 1100 to 3000 nM
5 | CN1CCC(Nc2nc(Nc3ccc(OC4CCCC4)cc3)c3c(=O)[nH]cc(Br)c3n2)CC1.Cl [Compound 237, 8-bromo-4-((4-(cyclopentyloxy)phenyl)amino)-2-((1-methylpiperidin-4-yl)amino)pyrido[4,3-d]pyrimidin-5(6H)-one hydrochloride] | 101 to 1000 nM | GI50 (MDA-MB-231 cells): 1100 to 3000 nM; inhibition level in Axl-harboring breast cancer cell lines (MDA-MB-231 cells; compared with references ASP2215 and R428, MDA-MB-231 and Hs578T): greater than those exhibited by reference ASP2215 and R428; GI50 (Hs578T cells): 100 to 1000 nM
6 | CCN1CCC(Nc2nc(Nc3ccc(Oc4ccccc4)cc3)c3c(=O)[nH]cc(Br)c3n2)CC1 [Compound 249, 8-bromo-2-(1-ethylpiperidin-4-ylamino)-4-(4-phenoxyphenylamino)pyrido[4,3-d]pyrimidin-5(6H)-one] | 11 to 100 nM | 
7 | CN1CCC(Nc2nc(Nc3ccc(OCc4ccccc4)cc3)c3c(=O)[nH]cc(Br)c3n2)CC1 [Compound 221, 4-((4-(benzyloxy)phenyl)amino)-8-bromo-2-((1-methylpiperidin-4-yl)amino)pyrido[4,3-d]pyrimidin-5(6H)-one] | 101 to 1000 nM | 
8 | CN1CCC(Nc2nc(Nc3ccc(OC4CCCCC4)cc3)c3c(=O)[nH]cc(Cl)c3n2)CC1 [Compound 229, 8-chloro-4-((4-(cyclohexyloxy)phenyl)amino)-2-((1-methylpiperidin-4-yl)amino)pyrido[4,3-d]pyrimidin-5(6H)-one] | 101 to 1000 nM | 
9 | O=c1[nH]cc(Br)c2nc(NC3CCN(CC(F)(F)F)CC3)nc(Nc3ccc(Oc4ccccc4)cc3)c12 [Compound 250, 8-bromo-4-(4-phenoxyphenylamino)-2-(1-(2,2,2-trifluoroethyl)piperidin-4-ylamino)pyrido[4,3-d]pyrimidin-5(6H)-one] | 101 to 1000 nM | 
10 | CC(C)c1ccc(Oc2ccc(Nc3nc(NC4CCN(C)CC4)nc4c(Br)c[nH]c(=O)c34)cc2)cc1 [Compound 236, 8-bromo-4-((4-(4-isopropylphenoxy)phenyl)amino)-2-((1-methylpiperidin-4-yl)amino)pyrido[4,3-d]pyrimidin-5(6H)-one hydrochloride] | 11 to 100 nM | 
11 | CN1CCC(Nc2nc(Nc3ccc(OCC4CCCC4)cc3)c3c(=O)[nH]cc(Br)c3n2)CC1 [Compound 227, 8-bromo-4-((4-(cyclopentylmethoxy)phenyl)amino)-2-((1-methylpiperidin-4-yl)amino)pyrido[4,3-d]pyrimidin-5(6H)-one] | 101 to 1000 nM | 
12 | CN1CCC(Nc2nc(Nc3ccc(Oc4cccc(F)c4)c(F)c3)c3c(=O)[nH]cc(Br)c3n2)CC1 [Compound 247, 8-bromo-4-((3-fluoro-4-(3-fluorophenoxy)phenyl)amino)-2-((1-methylpiperidin-4-yl)amino)pyrido[4,3-d]pyrimidin-5(6H)-one hydrochloride] | 11 to 100 nM | 
13 | CN1CCC(Nc2nc(Nc3ccc(Oc4cc(F)cc(F)c4)cc3)c3c(=O)[nH]cc(Br)c3n2)CC1 [Compound 243, 8-bromo-4-((4-(3,5-difluorophenoxy)phenyl)amino)-2-((1-methylpiperidin-4-yl)amino)pyrido[4,3-d]pyrimidin-5(6H)-one hydrochloride] | 11 to 100 nM | 
14 | CN1CCC(Nc2nc(Nc3ccc(Oc4ccccc4)cc3)c3c(=O)[nH]cc(Br)c3n2)CC1 [Compound 222, 8-bromo-2-((1-methylpiperidin-4-yl)amino)-4-((4-phenoxyphenyl)amino)pyrido[4,3-d]pyrimidin-5(6H)-one] |  | IC50 (JAK2): 101 to 1000 nM
15 | CC(C)N1CCC(Nc2nc(Nc3ccc(Oc4ccccc4)cc3)c3c(=O)[nH]cc(Br)c3n2)CC1 [Compound 248, 8-bromo-2-(1-isopropylpiperidin-4-ylamino)-4-(4-phenoxyphenylamino)pyrido[4,3-d]pyrimidin-5(6H)-one] | 11 to 100 nM | 
16 | Cc1ccccc1Oc1ccc(Nc2nc(NC3CCN(C)CC3)nc3c(Br)c[nH]c(=O)c23)cc1 [Compound 239, 8-bromo-2-((1-methylpiperidin-4-yl)amino)-4-((4-(o-tolyloxy)phenyl)amino)pyrido[4,3-d]pyrimidin-5(6H)-one hydrochloride] | 11 to 100 nM | 
17 | CN1CCC(Nc2nc(Nc3ccc(OC4CCCCC4)cc3)c3c(=O)[nH]cc(Br)c3n2)CC1 [Compound 228, 8-bromo-4-((4-(cyclohexyloxy)phenyl)amino)-2-((1-methylpiperidin-4-yl)amino)pyrido[4,3-d]pyrimidin-5(6H)-one] | 101 to 1000 nM | IC50 (JAK2): 101 to 1000 nM; IC50 (Truncated human Axl; [1]): 101 to 1000 nM

The next lines start with results.

Row | IC50 (Truncated human Axl; Table 1, read-out: Axl (IC50)) | SMILES | other results
18 | 11 to 100 nM | Cc1cc(Nc2nc(NC3CCN(C)CC3)nc3c(Br)c[nH]c(=O)c23)ccc1Oc1cccc(F)c1 [Compound 244, 8-bromo-4-((4-(3-fluorophenoxy)-3-methylphenyl)amino)-2-((1-methylpiperidin-4-yl)amino)pyrido[4,3-d]pyrimidin-5(6H)-one hydrochloride] | 
19 | 11 to 100 nM | CN1CCC(Nc2nc(Nc3ccc(Oc4ccccc4)c(F)c3)c3c(=O)[nH]cc(Br)c3n2)CC1 [Compound 245, 8-bromo-4-((3-fluoro-4-phenoxyphenyl)amino)-2-((1-methylpiperidin-4-yl)amino)pyrido[4,3-d]pyrimidin-5(6H)-one hydrochloride] | 
20 | 11 to 100 nM | CN1CCC(Nc2nc(Nc3ccc(Oc4ccc(Cl)cc4)cc3)c3c(=O)[nH]cc(Br)c3n2)CC1 [Compound 242, 8-bromo-4-((4-(4-chlorophenoxy)phenyl)amino)-2-((1-methylpiperidin-4-yl)amino)pyrido[4,3-d]pyrimidin-5(6H)-one hydrochloride] | 
21 | 11 to 100 nM | Cc1cc(Nc2nc(NC3CCN(C)CC3)nc3c(Br)c[nH]c(=O)c23)ccc1Oc1ccccc1 [Compound 246, 8-bromo-4-((3-methyl-4-phenoxyphenyl)amino)-2-((1-methylpiperidin-4-yl)amino)pyrido[4,3-d]pyrimidin-5(6H)-one hydrochloride] | 
22 | 11 to 100 nM | CN1CCC(Nc2nc(Nc3ccc(Oc4ccc(F)cc4)cc3)c3c(=O)[nH]cc(Br)c3n2)CC1 [Compound 232, 8-bromo-4-((4-(4-fluorophenoxy)phenyl)amino)-2-((1-methylpiperidin-4-yl)amino)pyrido[4,3-d]pyrimidin-5(6H)-one hydrochloride] | 
23 | 11 to 100 nM | Cc1ccc(Oc2ccc(Nc3nc(NC4CCN(C)CC4)nc4c(Br)c[nH]c(=O)c34)cc2)cc1 [Compound 231, 8-bromo-2-((1-methylpiperidin-4-yl)amino)-4-((4-(p-tolyloxy)phenyl)amino)pyrido[4,3-d]pyrimidin-5(6H)-one hydrochloride] | 
24 | 11 to 100 nM | Cc1ccc(Oc2ccc(Nc3nc(NC4CCN(C)CC4)nc4c(Br)c[nH]c(=O)c34)cc2)cc1 [Compound 225, 8-bromo-2-((1-methylpiperidin-4-yl)amino)-4-((4-(p-tolyloxy)phenyl)amino)pyrido[4,3-d]pyrimidin-5(6H)-one] | IC50 (JAK2): 1000 to 10000 nM; IC50 (Truncated human Axl; [1]): 11 to 100 nM
25 | 11 to 100 nM | CC(C)c1ccc(Oc2ccc(Nc3nc(NC4CCN(C)CC4)nc4c(Br)c[nH]c(=O)c34)cc2)cc1 [Compound 230, 8-bromo-4-((4-(4-isopropylphenoxy)phenyl)amino)-2-((1-methylpiperidin-4-yl)amino)pyrido[4,3-d]pyrimidin-5(6H)-one] | 
